# In patent publication US11365195B2, “Atypical inhibitors of monoamine transporters; method of making; and use thereof” (THE UNITED STATES OF AMERICA, AS REPRESENTED BY THE …, priority 2017, dated 2022):
# Where two headings read alike, the source gives them in different places.
# Key:
# [1] = target: T1, DAT (Rattus norvegicus, UniProt P23977); experiment: DAT radioligand binding in rat striatum ([3H]-WIN35,428 competition); settings: for SERT/DAT: ratio of SERT Ki to DAT Ki
# T1 construct: 100 μl of tissue preparation (1.5 mg of brain striatum membranes per well); tissue Bioreclamation IVT (Hicksville, N.Y.); host or cells: male Sprague-Dawley rat brain striatum membranes
# T1 sequence (P23977 whole entry): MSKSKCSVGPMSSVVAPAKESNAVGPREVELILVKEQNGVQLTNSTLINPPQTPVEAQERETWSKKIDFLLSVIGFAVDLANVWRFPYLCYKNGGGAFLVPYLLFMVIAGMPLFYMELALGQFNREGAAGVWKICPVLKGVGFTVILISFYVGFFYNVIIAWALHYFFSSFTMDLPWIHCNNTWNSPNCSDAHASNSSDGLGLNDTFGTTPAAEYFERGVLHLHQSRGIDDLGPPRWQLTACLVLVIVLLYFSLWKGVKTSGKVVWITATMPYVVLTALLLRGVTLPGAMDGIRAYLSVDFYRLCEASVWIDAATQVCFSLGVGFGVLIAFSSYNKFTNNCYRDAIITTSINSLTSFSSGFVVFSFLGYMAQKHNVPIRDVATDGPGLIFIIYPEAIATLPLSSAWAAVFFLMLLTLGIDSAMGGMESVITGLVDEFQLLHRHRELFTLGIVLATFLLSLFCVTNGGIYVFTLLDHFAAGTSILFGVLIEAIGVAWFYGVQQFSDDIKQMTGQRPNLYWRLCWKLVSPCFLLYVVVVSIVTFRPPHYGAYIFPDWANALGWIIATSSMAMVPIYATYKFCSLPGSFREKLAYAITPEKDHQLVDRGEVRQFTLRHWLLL
# Procedure: (§1) Binding affinities of the analogue compounds were evaluated at the DAT and SERT in rat brain membranes, and sigma-1 in guinea pig brain membranes according to the following protocols.
# DAT Radioligand Binding in Rat Striatum
# The tissue was centrifuged at 20,000 rpm for 10 min at 4° C. The pellet was suspended in cold buffer and centrifuged again using the same settings. The resulting pellet was resuspended in cold buffer at a concentration of 15 mg/mL OWW (original wet weight). On test day, all test compounds were freshly dissolved in 30% DMSO and 70% H2O to a stock concentration of 1 mM or 100 μM When necessary, to assist the solubilization of compounds, 10 μl of glacial acetic acid was added along with the DMSO (in place of 10 μl final H2O volume). Each test compound was then diluted into 10 half-log serial dilutions using 30% DMSO vehicle. […] Non-specific binding was determined using […] Indatraline and total binding was determined with 30% DMSO vehicle. The reaction was started with the addition of the tissue. […] The filters were washed 3 times with 3 mL (3×1 mL/well) of ice cold binding buffer. […] These analyses were performed using GraphPad Prism version 6.00 for Macintosh (GraphPad Software, San Diego, Calif.).
# [2] = target: T2, SERT (Rattus norvegicus, UniProt P31652); experiment: SERT radioligand binding in rat midbrain ([3H]-Citalopram competition)
# T2 construct: 100 μl of tissue preparation (2 mg of brain stem membranes per well); tissue Bioreclamation IVT (Hicksville, N.Y.); host or cells: male Sprague-Dawley rat brain stem membranes
# T2 sequence (P31652 whole entry): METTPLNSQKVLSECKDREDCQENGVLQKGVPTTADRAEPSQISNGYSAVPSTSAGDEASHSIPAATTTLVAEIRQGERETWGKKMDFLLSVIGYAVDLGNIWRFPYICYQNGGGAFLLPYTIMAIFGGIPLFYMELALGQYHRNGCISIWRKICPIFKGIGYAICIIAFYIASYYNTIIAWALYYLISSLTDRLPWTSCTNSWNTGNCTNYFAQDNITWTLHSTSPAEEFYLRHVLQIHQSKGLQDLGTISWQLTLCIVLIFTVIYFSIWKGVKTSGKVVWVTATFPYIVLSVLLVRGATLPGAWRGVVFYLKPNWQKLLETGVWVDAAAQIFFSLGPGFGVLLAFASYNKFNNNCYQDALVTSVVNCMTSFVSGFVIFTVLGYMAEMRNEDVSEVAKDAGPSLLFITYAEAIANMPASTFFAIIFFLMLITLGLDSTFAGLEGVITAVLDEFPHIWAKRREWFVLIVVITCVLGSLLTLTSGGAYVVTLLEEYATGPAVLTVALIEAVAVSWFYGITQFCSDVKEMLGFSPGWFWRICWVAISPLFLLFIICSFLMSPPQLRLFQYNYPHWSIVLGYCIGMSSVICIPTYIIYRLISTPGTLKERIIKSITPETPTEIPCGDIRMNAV
# Procedure: as §1
# SERT Radioligand Binding in Rat Midbrain
# The tissue was centrifuged at 20,000 rpm for 10 min at 4° C. The pellet was suspended in cold buffer and centrifuged again using the same settings. The resulting pellet was resuspended in cold buffer at a concentration of 20 mg/mL OWW (original wet weight). On test day, all test compounds were freshly dissolved in 30% DMSO and 70% H2O to a stock concentration of 1 mM or 100 μM. When necessary, to assist the solubilization of compounds, 10 μl of glacial acetic acid was added along with the DMSO (in place of 10 μl final H2O volume). Each test compound was then diluted into 10 half-log serial dilutions using 30% DMSO vehicle. […] Non-specific binding was determined using […] Fluoxetine HCl and total binding was determined with 30% DMSO vehicle. The reaction was started with the addition of the tissue. All compound dilutions were tested in triplicate and the reaction incubated for 60 min at room temperature. The reaction was terminated by filtration through Perkin Elmer Uni-Filter-96 GF/B, presoaked for 60 min in 0.3% polyethylenimine, using a Brandel 96-Well Plates Harvester Manifold (Brandel Instruments, Gaithersburg, Md.). The filters were washed 3 times with 3 mL (3×1 mL/well) of ice cold binding buffer. […] These analyses were performed using GraphPad Prism version 6.00 for Macintosh (GraphPad Software, San Diego, Calif.).
# [3] = target: T3, σ1R (Cavia porcellus, UniProt Q60492); experiment: σ1R radioligand binding in guinea pig cortex ([3H]-(+)-Pentazocine competition); settings: for σ1/DAT: ratio of σ1 to DAT affinity values; for σ1/SERT: ratio of σ1 to SERT affinity values
# T3 construct: tissue BioReclamation IVT (Hicksville, N.Y.); host or cells: male Hartley guinea pig brain cortex membranes
# T3 sequence (Q60492 whole entry): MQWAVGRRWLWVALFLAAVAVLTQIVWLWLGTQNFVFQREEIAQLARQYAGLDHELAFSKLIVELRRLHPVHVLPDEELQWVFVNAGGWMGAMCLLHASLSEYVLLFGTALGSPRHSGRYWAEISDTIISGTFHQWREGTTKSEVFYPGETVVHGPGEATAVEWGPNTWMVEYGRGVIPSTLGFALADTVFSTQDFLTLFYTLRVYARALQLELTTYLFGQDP
# Procedure: as §1
# σ1R Radioligand Binding in Guinea Pig Cortex
# Male Hartley guinea pig cortices were dissected from freshly harvested brains (shipped cold in PBS buffer from BioReclamation IVT (Hicksville, N.Y.)) and frozen at −80° C. for future use. […] The supernatant was collected in a clean tube and the pellet re-suspended in 10 ml of cold buffer and centrifuged again (˜1,200 rpm) for 10 min at 4° C. […] The final pellet was suspended in ice-cold binding buffer at 50 mg/ml concentration. […] All test compounds were freshly dissolved in 30% DMSO and 70% H2O to a stock concentration of 1 mM or 100 μM. When necessary, to assist the solubilization of compounds, 10 μl of glacial acetic acid was added along with the DMSO (in place of 10 μl final H2O volume). Each test compound was then diluted into 10 half-log serial dilutions using 30% DMSO as the vehicle. […] Nonspecific binding was determined using either 10 μM PRE084 or 10 μM (+)-Pentazocine and total binding was determined with 30% DMSO vehicle (3% DMSO final concentration). […] The filters were washed 3 times with 3 ml (3×1 ml/well) of ice cold binding buffer.
# [4] = Phase I metabolic stability in rat liver microsomes; type: in vitro ADME; settings: for Phase I in Liver Microsomes, Negative Control: rat liver microsomes lacking NADPH; for Phase I in Liver Microsomes, Rat: with NADPH, 10 μM compound, 0.5 mg/mL microsomes
# Procedure: Methods: Phase I metabolic stability assays were conducted in rat liver microsomes. For phase I metabolism, the reactions were carried out with 100 mM potassium phosphate buffer, pH 7.4, in the presence of NADPH regenerating system (1.3 mM NADPH, 3.3 mM glucose 6-phosphate, 3.3 mM MgCl2, 0.4 U/mL glucose-6-phosphate dehydrogenase, […] sodium citrate). Reactions in triplicate were initiated by addition of the liver microsomes to the incubation mixture (compound final concentration was 10 μM; 0.5 mg/mL microsomes). Compound disappearance was monitored via LC/MS/MS. […] The total run time for each analyte was 5.0 min.
# [5] = rat striatum membranes, [3H]-WIN35,428, mean ± SEM, read-out: DAT (rat striatum) Ki ± SEM
# [6] = rat midbrain/brain stem membranes, [3H]-Citalopram, mean ± SEM, read-out: SERT (rat mid-brain-stem) Ki ± SEM
SMILES,"Ki [1, 5] [nM]",SERT/DAT [1],"Ki [2, 6] [nM]",σ1/DAT [3],σ1/SERT [3],also measured
"Fc1ccc(C(SCCNC2CCN(Cc3ccccc3)CC2)c2ccc(F)cc2)cc1 [JBG01-052, 1-Benzyl-N-(2-((bis(4-fluorophenyl)methyl)thio)ethyl)piperidin-4-amine]",32.9 ± 5.86,12.37,407 ± 57.9,0.12,0.0098,Kd [3]: 3.97 ± 0.767 nM
"Cl.Cl.OC(Cc1ccccc1)CN(CC(O)Cc1ccccc1)C1CCN(CCSC(c2ccc(F)cc2)c2ccc(F)cc2)CC1 (centres unmarked) [JBG01-056, 3,3′-((1-(2-((Bis(4-fluorophenyl)methyl)thio)ethyl)piperidin-4-yl)azanediyl)bis(1-phenylpropan-2-ol)]",,8.44,,1.75,0.21,Ki [1]: 186 ± 46.4 nM; Ki [2]: 1570 ± 315 nM; Kd [3]: 326 ± 22.4 nM
"Fc1ccc(C(SCCN2CCC(NCc3ccccc3)CC2)c2ccc(F)cc2)cc1 [JBG01-057, N-Benzyl-1-(2-((bis(4-fluorophenyl)methyl)thio)ethyl)piperidin-4-amine]",108 ± 17.5,3.05,329 ± 34.3,0.56,0.19,
"Cl.Cl.OC(Cc1ccccc1)CN1CCC(NCCSC(c2ccc(F)cc2)c2ccc(F)cc2)CC1 (centres unmarked) [JBG01-058, 1-(4-((2-((Bis(4-fluorophenyl)methyl)thio)ethyl)amino)piperidin-1-yl)-3-phenylpropan-2-ol]",,,128 ± 33.2,,,"Phase I in Liver Microsomes, Negative Control ([4]; 0 min): 100%; Phase I in Liver Microsomes, Rat ([4]; 0 min): 100%; Phase I in Liver Microsomes, Rat ([4]; 30 min): 98%; Phase I in Liver Microsomes, Negative Control ([4]; 60 min): 96%; Phase I in Liver Microsomes, Rat ([4]; 60 min): 74%"
"Cl.Cl.Fc1ccc(CNC2CCN(CCSC(c3ccc(F)cc3)c3ccc(F)cc3)CC2)cc1 [JBG01-064, 1-(2-((Bis(4-fluorophenyl)methyl)thio)ethyl)-N-(4-fluorobenzyl)piperidin-4-amine]",55.9 ± 6.08,4.78,267 ± 9.25,0.74,0.16,
"Cl.Cl.Fc1ccc(C(SCCNC2CCN(Cc3ccc(Cl)cc3)CC2)c2ccc(F)cc2)cc1 [JBG01-078, N-(2-((Bis(4-fluorophenyl)methyl)thio)ethyl)-1-(4 chlorobenzyl)piperidin-4-amine]",39.6 ± 9.27,8.99,356 ± 0.862,1.15,0.13,
"Cl.Cl.Fc1ccc(C(SCCNC2CCN(Cc3ccc(C(F)(F)F)cc3)CC2)c2ccc(F)cc2)cc1 [JBG01-083, N-(2-((Bis(4-fluorophenyl)methyl)thio)ethyl)-1-(4-(trifluoromethyl)benzyl)piperidin-4-amine]",190 ± 47.9,8.53,1620 ± 175,,,
"Cl.Cl.Fc1ccc(C(SCCNC2CCN(CCc3ccccc3)CC2)c2ccc(F)cc2)cc1 [JBG01-084, N-(2-((Bis(4-fluorophenyl)methyl)thio)ethyl)-1-phenethylpiperidin-4-amine]",31.5 ± 5.32,4.57,144 ± 17,1.83,0.40,
"Cl.Cl.Fc1ccc(C(SCCN2CCC(NCc3ccc(Cl)cc3)CC2)c2ccc(F)cc2)cc1 [JBG01-086, 1-(2-((Bis(4-fluorophenyl)methyl)thio)ethyl)-N-(4-chlorobenzyl)piperidin-4-amine]",86.5 ± 35.6,4.57,395 ± 56.6,0.72,0.16,
"Cl.Cl.Fc1ccc(C(SCCN2CCC(NCc3ccc(C(F)(F)F)cc3)CC2)c2ccc(F)cc2)cc1 [JBG01-087, 1-(2-((Bis(4-fluorophenyl)methyl)thio)ethyl)-N-(4-(trifluoromethyl)benzyl)piperidin-4-amine]",128 ± 31.9,8.13,1040 ± 190,,,
"Cl.O=C(c1ccccc1)N1CCC(NCCSC(c2ccc(F)cc2)c2ccc(F)cc2)CC1 [JBG02-009, (4-((2-((Bis(4-fluorophenyl)methyl)thio)ethyl)amino)piperidin-1-yl)(phenyl)methanone]",,,,,,"Phase I in Liver Microsomes, Negative Control ([4]; 0 min): 100%; Phase I in Liver Microsomes, Rat ([4]; 0 min): 100%; Phase I in Liver Microsomes, Rat ([4]; 30 min): 20%; Phase I in Liver Microsomes, Negative Control ([4]; 60 min): 100%; Phase I in Liver Microsomes, Rat ([4]; 60 min): 7%; stability to Phase I metabolism (in words) ([4]; rat liver microsomes fortified with NADPH): susceptibility; Kd [3]: 2.04 ± 0.298 nM"
"Cl.Cl.Fc1ccc(C(SCCNC2CCN(Cc3cc4ccccc4[nH]3)CC2)c2ccc(F)cc2)cc1 [JBG02-014, 1-((1H-Indol-2-yl)methyl)-N-(2-((bis(4-fluorophenyl)methyl)thio)ethyl)piperidin-4-amine]",179 ± 22,9.61,1720 ± 516,,,
"O=C(c1cc2ccccc2o1)N1CCC(NCCSC(c2ccc(F)cc2)c2ccc(F)cc2)CC1 [JBG02-015, Benzofuran-2-yl(4-((2-((bis(4-fluorophenyl)methyl)thio)ethyl)amino)piperidin-1-yl)methanone]",115 ± 19.5,,96.4 ± 23.7,,,
"Cl.Cl.O.O=C(c1cc2ccccc2[nH]1)N1CCC(NCCSC(c2ccc(F)cc2)c2ccc(F)cc2)CC1 [JBG02-029, (4-((2-((Bis(4-fluorophenyl)methyl)thio)ethyl)amino)piperidin-1-yl)(1H-indol-2-yl)methanone]",,5.21,938 ± 76.5,,,Ki [1]: 180 ± 39.8 nM
"Cl.O=C(c1ccccc1)N1CCC(NCC[S+]([O-])C(c2ccc(F)cc2)c2ccc(F)cc2)CC1 (centres unmarked) [JBG02-055, (4-((2-((Bis(4-fluorophenyl)methyl)sulfinyl)ethyl)amino)piperidin-1-yl)(phenyl)methanone]",79.1 ± 20.6,97.72,7730 ± 732,,,
"CC(C)(C)C(=O)N1CCC(NCCSC(c2ccc(F)cc2)c2ccc(F)cc2)CC1.Cl [JBG02-064, 1-(4-((2-((Bis(4-fluorophenyl)methyl)thio)ethyl)amino)piperidin-1-yl)-2,2-dimethylpropan-1-one]",352 ± 137,2.84,1000 ± 228,,,
"CC(C)(C)CN1CCC(NCCSC(c2ccc(F)cc2)c2ccc(F)cc2)CC1 [JBG02-066, N-(2-((Bis(4-fluorophenyl)methyl)thio)ethyl)-1-neopentylpiperidin-4-amine]",279 ± 39.4,3.39,947 ± 101,1.13,,
